# Measured values as given in patent US8952024B2, “Herbicidal pyrimidone derivatives” (E I du Pont de Nemours and Company, priority 2009, dated 2015).
# Legend:
# Type in all cases: in vivo
# [1] = test system: chickweed (Stellaria media); assay: Test B postemergence plant response; conditions: Postemergence
# Procedure, shortened: (§1)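 Plants grown in peat/vermiculite medium were sprayed postemergence at 2–18 cm height (1- to 4-leaf stage). After 13–15 days in the greenhouse, response was rated visually against untreated controls on a 0–100 scale (0 no effect, 100 complete control).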
# [2] = test system: winter barley (Hordeum vulgare); assay: Test B postemergence plant response; conditions: Postemergence
# Procedure, shortened: as §1
# [3] = test system: canarygrass (Phalaris minor); assay: Test B postemergence plant response; conditions: Postemergence
# Procedure, shortened: as §1
# [4] = test system: windgrass (Apera spica-venti); assay: Test B postemergence plant response; conditions: Postemergence
# Procedure, shortened: as §1
# [5] = test system: wheat (Triticum aestivum); assay: Test A pre-/postemergence plant response; conditions: for Wheat plant response rating: visual injury, 0 to 100 scale (0 no effect, 100 complete control), approx. ten days
# Procedure, shortened: (§2)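 Visual injury rating on a 0–100 scale (0 = no effect, 100 = complete control) was made versus untreated controls after about ten days in the greenhouse. Compounds, formulated in a non-phytotoxic solvent mix containing surfactant, were sprayed preemergence onto loam/sand soil and postemergence onto one- to two-leaf plants.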
# [6] = test system: velvetleaf (Abutilon theophrasti); assay: Test A pre-/postemergence plant response; conditions: for Velvetleaf plant response rating: visual injury, 0 to 100 scale (0 no effect, 100 complete control), approx. ten days
# Procedure, shortened: as §2
# [7] = test system: pigweed (Amaranthus retroflexus); assay: Test A pre-/postemergence plant response; conditions: for Pigweed plant response rating: visual injury, 0 to 100 scale (0 no effect, 100 complete control), approx. ten days
# Procedure, shortened: as §2
# [8] = test system: large crabgrass (Digitaria sanguinalis); assay: Test A pre-/postemergence plant response; conditions: for Crabgrass, Large plant response rating: visual injury, 0 to 100 scale (0 no effect, 100 complete control), approx. ten days
# Procedure, shortened: as §2
# [9] = test system: morningglory (Ipomoea spp.); assay: Test A pre-/postemergence plant response; conditions: for Morningglory plant response rating: visual injury, 0 to 100 scale (0 no effect, 100 complete control), approx. ten days
# Procedure, shortened: as §2
# [10] = test system: giant foxtail (Setaria faberii); assay: Test A pre-/postemergence plant response; conditions: for Foxtail, Giant plant response rating: visual injury, 0 to 100 scale (0 no effect, 100 complete control), approx. ten days
# Procedure, shortened: as §2
# corn (Zea mays) = assay: Test A pre-/postemergence plant response; conditions: for Corn plant response rating: visual injury, 0 to 100 scale (0 no effect, 100 complete control), approx. ten days
# Procedure, shortened: as §2
# [11] = test system: barnyardgrass (Echinochloa crus-galli); assay: Test A pre-/postemergence plant response; conditions: for Barnyardgrass plant response rating: visual injury, 0 to 100 scale (0 no effect, 100 complete control), approx. ten days
# Procedure, shortened: as §2
# [12] = 31 g ai/ha, 0 to 100 scale (0 no effect, 100 complete control)
# [13] = 62 g ai/ha, scale 0 to 100 (0 no effect, 100 complete control)
# [14] = 125 g ai/ha, scale 0 to 100 (0 no effect, 100 complete control)
# [15] = 250 g ai/ha, scale 0 to 100 (0 no effect, 100 complete control), 13 to 15 days
# [16] = Postemergence, 125 g ai/ha, 0 to 100 scale where 0 is no effect and 100 is complete control
# [17] = Preemergence, 125 g ai/ha, 0 to 100 scale, 0 = no effect, 100 = complete control
# [18] = Preemergence, 500 g ai/ha, 0 to 100 scale, 0 = no effect, 100 = complete control
structure (smiles),measurement,setting,value
O=C(C1=C(O)C2CCC(C2)C1=O)c1cnc(-c2ccsc2)n(CC2CCCO2)c1=O (stereo not shown) [Compound 229],"Plant response rating, Chickweed",[1]; [12],70
same,"Plant response rating, Chickweed",[1]; [13],85
same,"Plant response rating, Chickweed",[1]; [14],90
same,"Plant response rating, Chickweed",[1]; [15],98
same,"Plant response rating, Barley",[2]; [12],0
same,"Plant response rating, Barley",[2]; [13],0
same,"Plant response rating, Barley",[2]; [14],5
same,"Plant response rating, Barley",[2]; [15],25
same,"Plant response rating, Canarygrass",[3]; [12],5
same,"Plant response rating, Canarygrass",[3]; [13],15
same,"Plant response rating, Canarygrass",[3]; [14],50
same,"Plant response rating, Canarygrass",[3]; [15],60
same,"Plant response rating, Windgrass",[4]; [12],0
same,"Plant response rating, Windgrass",[4]; [13],40
same,"Plant response rating, Windgrass",[4]; [15],65
same,"Plant response rating, Wheat",[5]; [16],0
same,Wheat plant response rating,"[5]; Postemergence, 500 g ai/ha",20
same,"Plant response rating, Wheat",[5]; [17],0
same,"Plant response rating, Wheat",[5]; [18],0
same,"Plant response rating, Velvetleaf",[6]; [16],100
same,Velvetleaf plant response rating,"[6]; Postemergence, 500 g ai/ha",100
same,"Plant response rating, Velvetleaf",[6]; [17],100
same,"Plant response rating, Velvetleaf",[6]; [18],100
same,"Plant response rating, Pigweed",[7]; [16],100
same,Pigweed plant response rating,"[7]; Postemergence, 500 g ai/ha",100
same,"Plant response rating, Pigweed",[7]; [17],90
same,"Plant response rating, Pigweed",[7]; [18],100
same,"Plant response rating, Crabgrass, Large",[8]; [16],80
same,"Crabgrass, Large plant response rating","[8]; Postemergence, 500 g ai/ha",100
same,"Plant response rating, Crabgrass, Large",[8]; [17],80
same,"Plant response rating, Crabgrass, Large",[8]; [18],100
same,"Plant response rating, Morningglory",[9]; [16],100
same,Morningglory plant response rating,"[9]; Postemergence, 500 g ai/ha",100
same,"Plant response rating, Morningglory",[9]; [17],40
same,"Plant response rating, Morningglory",[9]; [18],80
same,"Plant response rating, Foxtail, Giant",[10]; [16],90
same,"Foxtail, Giant plant response rating","[10]; Postemergence, 500 g ai/ha",100
same,"Plant response rating, Foxtail, Giant",[10]; [17],50
same,"Plant response rating, Foxtail, Giant",[10]; [18],60
same,"Plant response rating, Corn",corn (Zea mays); [16],0
same,Corn plant response rating,"corn (Zea mays); Postemergence, 500 g ai/ha",40
same,"Plant response rating, Corn",corn (Zea mays); [17],0
same,"Plant response rating, Corn",corn (Zea mays); [18],0
same,"Plant response rating, Barnyardgrass",[11]; [16],90
same,Barnyardgrass plant response rating,"[11]; Postemergence, 500 g ai/ha",100
same,"Plant response rating, Barnyardgrass",[11]; [17],0
same,"Plant response rating, Barnyardgrass",[11]; [18],70
COCCn1c(-c2cccc(C)c2)ncc(C(=O)C2=C(O)C3CCC(C3)C2=O)c1=O (stereo not shown) [Compound 233],"Plant response rating, Chickweed",[1]; [12],90
same,"Plant response rating, Chickweed",[1]; [13],95
same,"Plant response rating, Chickweed",[1]; [14],100
same,"Plant response rating, Chickweed",[1]; [15],100
same,"Plant response rating, Barley",[2]; [12],0
same,"Plant response rating, Barley",[2]; [13],0
same,"Plant response rating, Barley",[2]; [14],10
same,"Plant response rating, Barley",[2]; [15],10
same,"Plant response rating, Canarygrass",[3]; [12],0
same,"Plant response rating, Canarygrass",[3]; [13],5
same,"Plant response rating, Canarygrass",[3]; [14],10
same,"Plant response rating, Canarygrass",[3]; [15],20
same,"Plant response rating, Windgrass",[4]; [12],50
same,"Plant response rating, Windgrass",[4]; [13],55
same,"Plant response rating, Windgrass",[4]; [15],60
same,"Plant response rating, Wheat",[5]; [16],20
same,Wheat plant response rating,"[5]; Postemergence, 500 g ai/ha",60
same,"Plant response rating, Wheat",[5]; [17],0
same,"Plant response rating, Wheat",[5]; [18],40
same,"Plant response rating, Velvetleaf",[6]; [16],100
same,Velvetleaf plant response rating,"[6]; Postemergence, 500 g ai/ha",100
same,"Plant response rating, Velvetleaf",[6]; [17],60
same,"Plant response rating, Velvetleaf",[6]; [18],80
same,"Plant response rating, Pigweed",[7]; [16],100
same,Pigweed plant response rating,"[7]; Postemergence, 500 g ai/ha",100
same,"Plant response rating, Pigweed",[7]; [17],70
same,"Plant response rating, Pigweed",[7]; [18],100
same,"Plant response rating, Crabgrass, Large",[8]; [16],90
same,"Crabgrass, Large plant response rating","[8]; Postemergence, 500 g ai/ha",90
same,"Plant response rating, Crabgrass, Large",[8]; [17],40
same,"Plant response rating, Crabgrass, Large",[8]; [18],100
same,"Plant response rating, Morningglory",[9]; [16],100
same,Morningglory plant response rating,"[9]; Postemergence, 500 g ai/ha",100
same,"Plant response rating, Morningglory",[9]; [17],50
same,"Plant response rating, Morningglory",[9]; [18],90
same,"Plant response rating, Foxtail, Giant",[10]; [16],90
same,"Foxtail, Giant plant response rating","[10]; Postemergence, 500 g ai/ha",90
same,"Plant response rating, Foxtail, Giant",[10]; [17],20
same,"Plant response rating, Foxtail, Giant",[10]; [18],80
same,"Plant response rating, Corn",corn (Zea mays); [16],60
same,Corn plant response rating,"corn (Zea mays); Postemergence, 500 g ai/ha",80
same,"Plant response rating, Corn",corn (Zea mays); [17],0
same,"Plant response rating, Corn",corn (Zea mays); [18],0
same,"Plant response rating, Barnyardgrass",[11]; [16],90
same,Barnyardgrass plant response rating,"[11]; Postemergence, 500 g ai/ha",90
same,"Plant response rating, Barnyardgrass",[11]; [17],30
same,"Plant response rating, Barnyardgrass",[11]; [18],100
